Laboratory results: patent US20240327929A1, “DOSAGE REGIMEN FOR ADMINISTRATION OF BELZUTIFAN” (MERCK SHARP & DOHME LLC, priority 2021, published 2024)
“And” between values parts separate entries of the source, which are not always exact repeats. Equal values may be shown once.

Assays:
[1] = Effect of body weight on MK-6482 exposure (pooled Phase 1 mixed effects model); details: for % Change in AUC (h*ng/mL) per 10 kg increase in body weight / % Change in Cmax (ng/mL) per 10 kg increase in body weight: model accounting for dose, formulation
Procedure: Linear mixed effect model analyses were performed on the natural log transformed PK parameters from the four pooled Phase 1 studies, separately for AUC and Cmax. The model contained fixed effects of natural log transformed dose, drug formulation (old or new), enzyme phenotype determined from genotype, relevant additional covariates, and a random subject effect. UGT2B17 phenotype was considered as a categorical variable with dummy encoding for each phenotype (intermediate metabolizers (IM), poor metabolizers (PM)) that differed from the extensive metabolizer (EM) category). Similarly, CYP2C19 metabolizer status was considered as a categorical variable with dummy encoding for each phenotype (PM, IM, rapid metabolizers (RM) and ultra-rapid metabolizers (UM)) that differed from the EM category. Relevant covariates were selected under the null hypothesis from the following: disease (healthy vs patient), body weight (in kg), age, gender, and dose-by-body weight and dose-by-formulation interactions. Final models used to generate tables in this Example include log (dose), formulation (old/new), body weight (kg), and enzyme phenotype as variables.
Between- and within-subject random effects were modeled via terms Si and ϵij, respectively, and assumed to be normally distributed.
Presence of an interactive effect was tested using an F-test with Kenward-Roger denominator degrees of freedom for the fixed effects. As a descriptive measure, the effect of body weight on exposure was also calculated separately within each UGT2B17 group using a mixed effects model accounting for log(dose) and formulation only. […] For the overall estimate, model (1) was used.

[2] = Effect of dose and formulation on MK-6482 exposure (pooled Phase 1 mixed effects model); details: human, in vivo
Text: There are many important differences in patient composition between the trials. To note, MK-6482-001 was a first-in-human dose finding trial studying patients with advanced solid tumors or renal cell carcinoma (RCC), while MK-6482-002,-006, and-007 were PK trials conducted with (predominantly female) healthy volunteers. In addition, study-007 enrolled Japanese subjects based on specific CYP2C19 phenotypes; all other studies enrolled subjects without genotype-based selection criteria. Finally, the protocols differed in terms of belzutifan formulation given to trial subjects: subjects in protocols 001 and 002 were given one formulation of belzutifan, study 006 compared that formulation and a new formulations, enrolling all subjects to receive both the formulations, and study 007 patients only received the new formulation of MK-6482.

[3] = system: UGT2B17 and CYP2C19; assay: Pharmacogenetic analysis of pooled Phase 1 PK: combined UGT2B17 and CYP2C19 phenotype vs double EM; details: model-based estimates
Procedure: Linear mixed effect model analyses were performed on the natural log transformed PK parameters from the four pooled Phase 1 studies, separately for AUC and Cmax. The model contained fixed effects of natural log transformed dose, drug formulation (old or new), enzyme phenotype determined from genotype, relevant additional covariates, and a random subject effect. UGT2B17 phenotype was considered as a categorical variable with dummy encoding for each phenotype (intermediate metabolizers (IM), poor metabolizers (PM)) that differed from the extensive metabolizer (EM) category). […]
To understand the differences in exposure between different genetic phenotype categories, least square means were computed for each UGT2B17 phenotype, each CYP2C19 phenotype, and for each combination UGT2B17/CYP2C19 phenotype. […] Similar analyses were also conducted separately within each UGT2B17 phenotype group to quantify the difference in exposure between CYP2C19 phenotype groups separately for each UGT2B17 phenotype. […]
The Phase 1 PK endpoints analyzed were AUCo->following single dose (SD) administration and steady state AUCo-, following multiple dose (MD) administration pooled, as well as Cmax following SD administration and steady state Cmax following MD administration pooled. […]

[4] = cited from earlier work
[5] = biological target: T1, UGT2B17 (Homo sapiens, UniProt O75795)
T1 sequence (O75795 24-530): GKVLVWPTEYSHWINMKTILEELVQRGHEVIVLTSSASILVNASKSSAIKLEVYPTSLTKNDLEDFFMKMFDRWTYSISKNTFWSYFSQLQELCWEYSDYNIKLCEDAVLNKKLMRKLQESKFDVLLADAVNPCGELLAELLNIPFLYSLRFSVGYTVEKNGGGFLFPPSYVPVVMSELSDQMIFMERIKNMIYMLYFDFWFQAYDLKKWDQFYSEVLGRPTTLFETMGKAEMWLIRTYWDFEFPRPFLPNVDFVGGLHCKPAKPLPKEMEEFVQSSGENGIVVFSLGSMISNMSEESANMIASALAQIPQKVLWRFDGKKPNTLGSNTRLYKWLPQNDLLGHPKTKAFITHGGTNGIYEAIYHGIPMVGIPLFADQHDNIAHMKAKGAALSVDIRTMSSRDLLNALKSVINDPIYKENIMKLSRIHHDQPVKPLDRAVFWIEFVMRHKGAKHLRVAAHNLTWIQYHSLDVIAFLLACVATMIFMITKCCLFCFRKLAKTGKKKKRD

[6] = dose-escalation cohort, doses up to 160 mg once daily

SMILES: CS(=O)(=O)c1ccc(Oc2cc(F)cc(C#N)c2)c2c1[C@H](O)[C@H](F)[C@@H]2F [MK-6482, 3-[(1S,2S, 3R)-2,3-Difluoro-1-hydroxy-7-methylsulfonyl-indan-4-yl]oxy-5-fluoro-benzonitrile]
- expected difference in exposure between extremes of body weight ([1]; 41 kg vs 164 kg, independent of enzyme phenotype): ~2.9 fold
- % Change in AUC (h*ng/mL) per 10 kg increase in body weight ([1]; UGT2B17 EM): −10.9%
- % Change in Cmax (ng/mL) per 10 kg increase in body weight ([1]; UGT2B17 EM): −6.4%
- % Change in AUC (h*ng/mL) per 10 kg increase in body weight ([1]; UGT2B17 IM): −8.3%
- % Change in Cmax (ng/mL) per 10 kg increase in body weight ([1]; UGT2B17 IM): −7.8%
- % Change in AUC (h*ng/mL) per 10 kg increase in body weight ([1]; UGT2B17 PM): −15.5%
- % Change in Cmax (ng/mL) per 10 kg increase in body weight ([1]; UGT2B17 PM): −4.5%
- decrease in AUC for every 10 kg increase in body weight ([1]; overall, all subjects): 9.2 (6.5, 12.0) % and 9.2%
- decrease in Cmax for every 10 kg increase in body weight ([1]; overall, all subjects): 7.0 (4.5, 9.5) %
- effect of dose on Cmax, estimated coefficient of log(dose) [2]: 0.90
- exposure of PMs of both enzymes relative to EMs of both enzymes [3]: over four-fold
- dose-limiting toxicities [4, 6]: no dose-limiting toxicities occurred
- maximum tolerated dose [4, 6]: not reached
- most common adverse events ([4]; heavily pre-treated patients with ccRCC): anemia and hypoxia
- metabolism (primary pathway and enzyme) [5]: metabolized primarily by glucuronidation, catalyzed predominantly by UDP Glucuronosyltransferase Family 2 Member B17 (UGT2B17)
